Reference: ChEMBL document CHEMBL1121877, “Isomeric phenylthioimidazo[1,2-alpha]pyridines as anthelmintics” (1981)

Tests used:
Format in all cases: functional
Mus musculus [1] = species on record: Mus musculus; assay: Compound (1000 p.p.m.) was tested for percent reduction of Nematospiroides dubius in mice
Mus musculus [2] = species on record: Mus musculus; assay: Compound (125 p.p.m.) was tested for percent reduction of Nematospiroides dubius in mice
Mus musculus [3] = species on record: Mus musculus; assay: Compound (250 p.p.m.) was tested for percent reduction of Nematospiroides dubius in mice
Mus musculus [4] = species on record: Mus musculus; assay: Compound (500 p.p.m.) was tested for percent reduction of Nematospiroides dubius in mice
Mus musculus [5] = species on record: Mus musculus; assay: Compound (62.5 p.p.m.) was tested for percent reduction of Nematospiroides dubius in mice

SMILES | Reduction (Mus musculus [1]) [%] | Reduction (Mus musculus [2]) [%] | Reduction (Mus musculus [3]) [%] | Reduction (Mus musculus [4]) [%] | Reduction (Mus musculus [5]) [%]
COC(=O)Nc1cn2ccccc2n1 | 54 |  |  |  | 
COC(=O)Nc1cn2c(Sc3ccccc3)cccc2n1 | 0 |  |  |  | 
COC(=O)Nc1cn2cc(Sc3ccccc3)ccc2n1 |  | 75 | 98 | 100 | 20
COC(=O)Nc1cn2cccc(Sc3ccccc3)c2n1 | 0 |  |  |  | 
COC(=O)Nc1cn2cc([S+]([O-])c3ccccc3)ccc2n1 (stereo not given) |  | 100 | 100 |  | 90
COC(=O)Nc1cn2ccc(Sc3ccccc3)cc2n1 | 0 |  |  |  | 
CC(C)OC(=O)Nc1ccc2[nH]c(-c3cscn3)nc2c1 [CAMBENDAZOLE] | 100 | 0 | 20 | 80 | 0
COC(=O)Nc1nc2cc(Sc3ccccc3)ccc2[nH]1 [FENBENDAZOLE] |  | 74 | 97 | 100 | 0
c1ccc2[nH]c(-c3cscn3)nc2c1 [THIABENDAZOLE] | 87 | 0 | 0 | 47 | 0
